Several values for one entry are separate records, joined by “and”; a condition that tells them apart may be missing. Equal values may be shown once. Where only a bound is given, the exact number is not on record here.

Data set [1] is described as follows: physchem. Conditions: PAMPA. (The PAMPA barrier holds no transporters, so it reflects passive diffusion.)
Description: Passive permeability of the compound by PAMPA
In data set [2] the target is Bcl-2-like protein 1 (Homo sapiens, UniProt Q07817).
Description: Inhibition of FITC-Bak-BH3 binding to Bcl-XL (unknown origin) after 1.5 hrs by fluorescence polarization assay
In data set [3] the target is Apoptosis regulator Bcl-2 (Homo sapiens, UniProt P10415).
Description: Inhibition of FITC-Bak-BH3 binding to Bcl2 (unknown origin) after 1.5 hrs by fluorescence polarization assay
The subject of data set [4] is NCI-H929. The experiment in a line: cells. The settings on record: Homo sapiens, NCI-H929, 72 h.
Data set [5] is described as follows: in vitro. Conditions: human, K562 cells.
The subject of data set [6] is NCI-H929.
The target of data set [7] is Induced myeloid leukemia cell differentiation protein Mcl-1 (Homo sapiens, UniProt Q07820).
Description: Inhibition of FITC-Bak-BH3/FITC-Bim-BH3 binding to MCL1 (172 to 327 residues) (unknown origin) expressed in Escherichia coli BL21 CodonPlus (DE3) RIL after 1.5 hrs by fluorescence polarization assay
Data set [8] deals with MV4-11. The experiment in a line: cells. The settings on record: Homo sapiens, MV4-11, 72 h.
Data set [9] concerns OPM-2. Nature of the data set: cells. The settings on record: Homo sapiens, OPM-2, 72 h.
Data set [10] is described as follows: cells. The settings on record: Homo sapiens, ALMC1, 72 h.
Data set [11] in a line: cells. Conditions: Homo sapiens, ALMC2, 72 h.

Apoptosis regulator Bcl-2, sequence (P10415 whole entry): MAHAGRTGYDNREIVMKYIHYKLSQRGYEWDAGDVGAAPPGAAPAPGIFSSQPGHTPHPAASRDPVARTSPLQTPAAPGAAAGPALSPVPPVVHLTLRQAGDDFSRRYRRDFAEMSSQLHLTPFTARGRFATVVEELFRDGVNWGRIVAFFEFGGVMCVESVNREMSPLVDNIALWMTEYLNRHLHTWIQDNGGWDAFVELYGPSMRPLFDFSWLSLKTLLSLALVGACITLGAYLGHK
Bcl-2-like protein 1, sequence (Q07817 whole entry): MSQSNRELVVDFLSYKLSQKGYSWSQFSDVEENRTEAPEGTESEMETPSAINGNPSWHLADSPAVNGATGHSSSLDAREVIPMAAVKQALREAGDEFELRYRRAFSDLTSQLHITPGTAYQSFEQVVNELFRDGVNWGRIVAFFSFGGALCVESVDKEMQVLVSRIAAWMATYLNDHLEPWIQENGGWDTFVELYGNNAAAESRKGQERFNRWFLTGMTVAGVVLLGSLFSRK
Induced myeloid leukemia cell differentiation protein Mcl-1, sequence (Q07820 whole entry): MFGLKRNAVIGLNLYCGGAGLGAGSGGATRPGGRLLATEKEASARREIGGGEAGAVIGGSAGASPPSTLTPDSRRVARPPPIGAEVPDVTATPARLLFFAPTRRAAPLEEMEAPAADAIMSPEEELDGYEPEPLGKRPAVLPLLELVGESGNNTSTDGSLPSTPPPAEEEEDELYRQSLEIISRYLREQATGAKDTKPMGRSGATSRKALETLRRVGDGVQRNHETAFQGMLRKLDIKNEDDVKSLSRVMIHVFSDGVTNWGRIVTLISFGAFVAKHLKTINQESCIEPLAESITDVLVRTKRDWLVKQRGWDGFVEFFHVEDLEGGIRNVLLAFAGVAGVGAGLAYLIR

Regarding `Cc1cc(OCCCc2c3n(c4c(-c5c(C)nn(C)c5C)c(Cl)ccc24)CCCN(c2cccc(C(=O)O)c2)C3=O)cc(C)c1Cl`, the Papp – broadly, the rate of passage across a membrane or cell layer, normalised by area and donor concentration – in data set [1] was determined as 307 ×10⁻⁶ cm/s.

For the molecule `Cc1cc(OCCCc2c(C(=O)NCc3cc(C(=O)O)ccn3)[nH]c3c(-c4c(C)nn(C)c4C)cccc23)cc(C)c1Cl`, the Papp in data set [1] was below 1.2 ×10⁻⁶ cm/s.

In data set [1], `Cc1cc(OCCCc2c(C(=O)Nc3cncc(C(=O)O)c3)[nH]c3c(-c4c(C)nn(C)c4C)c(Cl)ccc23)cc(C)c1Cl` had an apparent permeability coefficient (Papp) below 1 ×10⁻⁶ cm/s.

In the case of `Cc1cc(OCCCc2c3n(c4c(-c5c(C)nn(C)c5C)c(Cl)ccc24)CCCN(c2cn(C)c4c(C(=O)O)cccc24)C3=O)cc(C)c1Cl`, the Ki (as a rule, a dissociation constant, usually derived from enzyme kinetics or from competition with a known ligand) in [2] turned out to be 21 µM; in [3], 0.31 µM. Moreover, the GI50 (as a rule, the concentration giving 50% growth inhibition) in data set [4] was 1 µM. The GI50 at 72 h in data set [5] is above 9.2 µM.

With `Cc1cc(OCCCc2c3n(c4c(-c5c(C)nn(C)c5C)c(Cl)ccc24)CCCN(c2cc(C(=O)O)cc4c2OCO4)C3=O)cc(C)c1Cl`, the results for the Ki in [2] and in [3] were above 36 µM and 0.55 µM, respectively. Moreover, the GI50 in [4] came to 2.3 µM. The Papp in data set [1] was determined as 63 ×10⁻⁶ cm/s. The GI50 at 72 h in [5] was above 12.5 µM.

As to `Cc1cc(OCCCc2c3n(c4c(-c5c(C)nn(C)c5C)c(Cl)ccc24)CCCN(c2cc(C(=O)O)cc4ccn(C)c24)C3=O)cc(C)c1Cl`, the Ki in [2] is above 36 µM; in data set [3], 0.52 µM. The molecule also had a GI50 in data set [4] of 6.1 µM. Also, the GI50 at 72 h in data set [5] was above 12.5 µM.

In the case of `Cc1cc(OCCCc2c(C(=O)Nc3ccc(C(=O)O)o3)[nH]c3c(-c4c(C)nn(C)c4C)c(Cl)ccc23)cc(C)c1Cl`, the Papp in [1] is 2.3 ×10⁻⁶ cm/s.

As to `Cc1cc(OCCCc2c3n(c4c(-c5c(C)nn(C)c5C)c(Cl)ccc24)CCCN(c2cn(C)c4ccc(C(=O)O)cc24)C3=O)cc(C)c1Cl`, the Ki was determined as 26 µM in data set [2] and 0.56 µM in data set [3]. The GI50 in data set [6] is 0.28 µM and 0.33 µM; in data set [4] it was 0.3 µM. Moreover, in data set [5], the GI50 at 72 h was above 12.5 µM.

Take `Cc1cc(OCCCc2c3n(c4c(-c5c(C)nn(C)c5C)cc(Cl)cc24)CCCN(c2cc(C(=O)O)c4ccn(C)c4c2)C3=O)cc(C)c1Cl`: in data set [7], the affinity, expressed as Ki, was 0.094 µM. Further, the GI50 in [4] stood at 6 µM; in data set [8] it was 6.2 µM; in data set [9], 5.7 µM; in data set [10], 6.6 µM; in data set [11], 9.9 µM. Besides, it took 7.7 µM to inhibit growth in [5] by half (GI50 at 72 h).

As to `Cc1cc(OCCCc2c(C(=O)NCC(=O)O)[nH]c3ccccc23)cc(C)c1Cl`, the affinity in data set [7] corresponds to a Ki of 0.62 µM.

With `Cc1cc(OCCCc2c3n(c4c(-c5c(C)nn(C)c5C)c(Cl)ccc24)CCCN(c2cc(C(=O)O)c4ccn(C)c4c2)C3=O)cc(C)c1Cl`, the values for the Ki in data set [2] and in data set [3] were 19 µM and 0.58 µM, respectively. For the same molecule, the GI50 in [4] was 1.4 to 1.6 µM; in [8], 0.77 µM; in [9], 1.4 µM; in data set [10], 1.5 µM; in [11], 3.2 µM. Moreover, the Papp in [1] came to 21 ×10⁻⁶ cm/s. The molecule further gave a GI50 at 72 h in [5] of 11 to 11.5 µM.

Molecule `Cc1cc(OCCCc2c(C(=O)Nc3ccc(C(=O)O)cc3)[nH]c3c(-c4c(C)nn(C)c4C)c(Cl)ccc23)cc(C)c1Cl` registered a Papp in [1] of 1.2 ×10⁻⁶ cm/s.

`Cc1cc(OCCCc2c(C(=O)Nc3cc(C(=O)O)ccn3)[nH]c3c(-c4c(C)nn(C)c4C)c(Cl)ccc23)cc(C)c1Cl` showed a Papp in data set [1] below 3.3 ×10⁻⁶ cm/s.

On to `Cc1cc(OCCCc2c(C(=O)NCc3cccc(C(=O)O)c3)[nH]c3c(-c4c(C)nn(C)c4C)c(Cl)ccc23)cc(C)c1Cl`, for which the Papp in [1] was below 7.6 ×10⁻⁶ cm/s.

As for `Cc1cc(OCCCc2c3n(c4c(-c5c(C)nn(C)c5C)c(Cl)ccc24)CCCN(c2cccc4c(C(=O)O)cccc24)C3=O)cc(C)c1Cl`, the results for the inhibition constant (Ki) in data set [2] and in data set [3] were 11 µM and 0.25 µM, respectively. Further, the concentration for 50% growth inhibition (GI50) in [4] is 1 µM. Besides, the Papp in data set [1] turned out to be 4.4 ×10⁻⁶ cm/s. In addition, the GI50 at 72 h in data set [5] was 5.7 µM.

In data set [7], `Cc1cc(OCCCc2c(C(=O)NCc3ccc(C(=O)O)o3)[nH]c3ccccc23)cc(C)c1Cl` returned a Ki of 0.069 µM. This lies in the double-digit nanomolar range.

In data set [7], `COC(=O)CNC(=O)c1[nH]c2ccccc2c1CCCOc1cc(C)c(Cl)c(C)c1` had a Ki of 3.2 µM.

Turning to `Cc1cc(OCCCc2c(C(=O)Nc3ccc(C(=O)O)cn3)[nH]c3c(-c4c(C)nn(C)c4C)c(Cl)ccc23)cc(C)c1Cl`, the Papp in data set [1] is below 2.3 ×10⁻⁶ cm/s.

For the molecule `Cc1cc(OCCCc2c3n(c4c(-c5c(C)nn(C)c5C)c(Cl)ccc24)CCCN(c2cn(C)c4cc(C(=O)O)ccc24)C3=O)cc(C)c1Cl`, the values for the Ki in data set [2] and in data set [3] were above 36 µM and 0.53 µM, respectively. In data set [4], this molecule gave a GI50 of 0.33 µM. For the same molecule, the GI50 at 72 h in data set [5] amounted to 5.8 µM.

`Cc1cc(OCCCc2c3n(c4c(-c5c(C)nn(C)c5C)cc(Cl)cc24)CCCN(c2cc(C(=O)O)cc4c2ccn4C)C3=O)cc(C)c1Cl`: the affinity in data set [7], expressed as Ki, was 0.13 µM. In addition, the GI50 turned out to be 10 µM in [4]; 9.1 µM in data set [8]; 8.9 µM in data set [9]; 7.7 µM in [10]; 12 µM in [11]. For the same molecule, growth in [5] was halved (GI50 at 72 h) at 10 µM.

On to `Cc1cc(OCCCc2c3n(c4c(-c5c(C)nn(C)c5C)c(Cl)ccc24)CCCN(c2ccc(C(=O)O)c4ccn(C)c24)C3=O)cc(C)c1Cl`, for which the Ki was above 36 µM in data set [2] and 0.44 µM in data set [3]. Besides, in [4], halving of growth (GI50) required 5.7 µM. The same molecule registered a Papp in data set [1] of 4.8 ×10⁻⁶ cm/s. This molecule also returned a GI50 at 72 h in data set [5] above 12.5 µM.

For the molecule `Cc1cc(OCCCc2c(C(=O)NCCC(=O)O)[nH]c3ccccc23)cc(C)c1Cl`, the affinity in data set [7], expressed as Ki, was 0.57 µM.

In the case of `Cc1cc(OCCCc2c3n(c4c(-c5c(C)nn(C)c5C)c(Cl)ccc24)CCCN(Cc2cccc(C(=O)O)c2)C3=O)cc(C)c1Cl`, the apparent permeability coefficient (Papp) in data set [1] was 143 ×10⁻⁶ cm/s.

`Cc1cc(OCCCc2c(C(=O)Nc3cccc(C(=O)O)n3)[nH]c3c(-c4c(C)nn(C)c4C)c(Cl)ccc23)cc(C)c1Cl`: the Papp in data set [1] was below 1.6 ×10⁻⁶ cm/s.

On to `Cc1cc(OCCCc2c3n(c4c(-c5c(C)nn(C)c5C)c(Cl)ccc24)CCCN(c2ccc(C(=O)O)c4cccnc24)C3=O)cc(C)c1Cl`, for which the Ki in data set [2] was above 36 µM; in [3] it was 0.49 µM. This molecule displayed a GI50 in data set [4] of 3.3 µM. Moreover, the Papp in data set [1] stood at 122 ×10⁻⁶ cm/s. Besides, in data set [5], the GI50 at 72 h turned out to be 6.2 µM.

(Values after ChEMBL document CHEMBL4020825, “Optimization of Potent and Selective Tricyclic Indole Diazepinone Myeloid Cell Leukemia-1 Inhibitors Using Structure-Based Design” (J Med Chem, 2018).)
